In one assay the test system is PHKs. Put plainly: CXCL8 expression in PHKs (qRT-PCR, normalized to actin). The assay is classed as cell-based, human. The conditions noted are these: for CXCL8 expression normalized to actin / CXCL8 induction by S. epidermidis CM with added peptide: PHKs; for CXCL8 expression normalized to actin / CXCL8 induction by S. epidermidis CM with added peptide / induction of CXCL8 expression in PHKs: 5 h; for induction of CXCL8 expression in PHKs: single treatment, 2 µM human AMPs or lugdunin, 0.8 µM (pro)-gallidermin or nisin. On the procedure:
Fig. 1 Lugdunin sensitizes epithelial cells for innate immune defense. a Primary human keratinocytes (PHKs) were pretreated with S. epidermidis conditioned medium (CM), indicated lugdunin concentrations, or the combination of both for 20 h. Subsequently, cells were infected with S. aureus for 1.5 h followed by cell lysis and determination of colony-forming units (CFUs). Shown is one representative experiment of three independent experiments with six technical replicates ± s.e.m. n.s., not significant. b Dorsal skin of mice was pretreated with S. epidermidis CM, 1.5 µg lugdunin alone or in combination with S. epidermidis CM for 24 h. Subsequently, S. aureus CFUs were determined. Horizontal lines represent the mean of each group ± s.e.m. c PHKs were treated with 2 μM lugdunin or with S. epidermidis CM alone or in combination for 20 h and subsequently expression of indicated antimicrobial peptides (AMPs) (respective protein names in brackets) was analyzed and normalized to actin. Shown is one representative experiment of three independent experiments with two technical replicates ± s.e.m. d PHKs were treated with 2 µM lugdunin or 100 ng/mL Pam2Cys for 5 h and subsequently the concentration of indicated cytokines in the supernatant was analyzed by LEGENDplex^TM (BioLegend). Shown is one representative experiment of three independent experiments with two technical replicates ± s.e.m. e PHKs were treated with increasing concentrations of lugdunin or 100 ng/mL Pam2Cys or Pam3Cys for 5 h and subsequently expression of chemokine (C-X-C motif) ligand 8 (CXCL8) was analyzed and normalized to actin. Shown is one representative experiment of three independent experiments, each with two technical replicates ± s.e.m. f, g Indicated cells were treated with 2 µM lugdunin or 100 ng/mL Pam2Cys as a positive control for 5 h and subsequently the concentration of CXCL8 (f) and interleukin-1α (IL-1α) (g) in the supernatant was analyzed by LEGENDplex^TM (BioLegend) and enzyme-linked immunosorbent assay (ELISA) (R&D Systems). Shown is one representative experiment of three independent experiments with two technical replicates ± s.e.m. Significant differences to control treatments were analyzed by ordinary one-way analysis of variance (ANOVA) followed by Dunnett’s multiple comparisons test (*P < 0.05; **P < 0.01; ***P < 0.001; ****P < 0.0001). n.d. = not detected. Source data are provided as a Source Data file
Fig. 4 Lugdunin amplifies the commensal-induced chemokine (C-X-C motif) ligand (CXCL8) induction. a Primary human keratinocytes (PHKs) were either treated with 2 μM of human antimicrobial peptides (AMPs) (black bars) or lugdunin (blue bars), or 0.8 μM (pro)-gallidermin or nisin (black bars), or in combination with S. epidermidis conditioned medium (CM) (gray and red striped bars) for 5 h, and subsequently expression of CXCL8 was analyzed and normalized to actin. Shown is one representative experiment of three independent experiments with two technical replicates ± s.e.m. b PHKs were treated with 2 μM human AMPs, 2 μM lugdunin, 0.8 μM of the other bacteriocins (gray bars) or the correspondent peptide combinations (white bars), or 50 ng/mL Pam2Cys, 10 ng/mL IL-1α, or S. epidermidis CM as controls (black bars), for 5 h and subsequently expression of CXCL8 was analyzed and normalized to actin. Shown is one representative experiment of three independent experiments with two technical replicates ± s.e.m. Significant differences to control treatments were analyzed by ordinary one-way analysis of variance (ANOVA) followed by Dunnett’s multiple comparisons test (***P < 0.001; ****P < 0.0001). Source data are provided as a Source Data file
After 5 h or 20 h of peptide treatment, PHKs were washed once with PBS, followed by the addition of RNA lysis buffer directly into the well. Total RNA was extracted using the Nucleospin RNA Kit (Macherey-Nagel) according to the manufacturer’s protocol. […]
In general terms: Quantitative PCR measures a nucleic acid by following its amplification.

The next assay has as its system S. epidermidis. Nature of the assay: Antimicrobial testing (CFU) against S. epidermidis. The conditions noted are these: 3 h, mean. The assay is classed as cell-based, Staphylococcus epidermidis. On the procedure: (§1) For bactericidal testing, logarithmically growing staphylococci were resuspended in PBS (Sigma) containing 0.1% TSB (Carl Roth) and colony-forming unit (CFU) was adjusted to 3 × 10^6 CFU/mL. Different concentrations of single peptides and their combinations were diluted in PBS containing 0.1% TSB and incubated with bacteria in triplicates for 3 h at 37 °C and 150 rpm orbital shaking. Subsequently, serial dilutions (10^–1–10^–4) of the bacterial suspensions were prepared in PBS and 20 µL of each dilution was spotted in duplicates onto TSB plates and incubated at 37 °C overnight. The next day, the number of CFU was analyzed and the percentage of viable bacteria was determined by normalizing to the untreated control (100%). Results are illustrated in a S. aureus killing curve. In each experiment, negative control replicates (PBS + 0.1% TSB) as well as sterility control replicates were included.
(§2) Supplementary Figure 7: Efficiency of Lugdunin and DCD -1(L) combinations in 107 […]
(§3) logarithmically grown bacteria were incubated with indicated combinations of 109 lugdunin and DCD-1(L) in PBS containing 0.1% TSB at 37 °C orbital shaking. After 3 110 hours of incubation several dilutions of the bacterial suspensions were plated onto TSB 111 agar pl ates and incubated over night at 37 °C. The next day bacterial CFU were 112 counted. Each experiment was performed in triplicates. Data represent the mean 113 percentage of CFU normalized to the untreated control. Data represent the mean of at 114 least three independent experiments. 115
(§4) (1 picture or pasted object on this page, not shown here)

The next assay deals with P. aeruginosa. Nature of the assay: Antimicrobial testing (CFU) against P. aeruginosa. The assay is classed as cell-based, Pseudomonas aeruginosa. The conditions noted are these: 3 h.
The next assay has as its system P. mirabilis. Nature of the assay: Antimicrobial testing (CFU) against P. mirabilis. The assay is classed as cell-based, Proteus mirabilis. To be noted: 3 h, mean. As for the experimental part:
as §1, §2, §3, §4

In a further assay the test system is E. coli. Nature of the assay: Antimicrobial testing (CFU) against E. coli. The assay is classed as cell-based, Escherichia coli. The conditions noted are these: 3 h, mean.
In a further assay the test system is E. faecalis. Put plainly: Antimicrobial testing (CFU) against E. faecalis. To be noted: 3 h, mean. Format: cell-based, Enterococcus faecalis.
In a further assay the test system is B. subtilis. Put plainly: Antimicrobial testing (CFU) against B. subtilis. The assay is classed as cell-based, Bacillus subtilis. To be noted: for B. subtilis CFU normalized to untreated control (1,00): 3 h, mean. On the procedure: as §1, §2, §3, §4
Setting [1] is: 2 µM human AMPs, 2 µM lugdunin, 0.8 µM other bacteriocins or their combinations, 50 ng/mL Pam2Cys, 10 ng/mL IL-1α, S. epidermidis CM, two technical replicates, Fig 4b.
The mark [2] stands for this setting: peptide (2 µM human AMPs or lugdunin, 0.8 µM gallidermin or nisin) in combination with S. epidermidis CM, two technical replicates, Fig 4a.
Where [3] appears, read: single treatment: 2 µM human AMPs or lugdunin, 0.8 µM (pro)-gallidermin or nisin, or S. epidermidis CM, M = 1, two technical replicates (rows), Fig 4a.
Where [4] appears, read: single peptide 1 µM, PBS + 0.1% TSB, 37 °C, mean of at least three experiments.

Values joined by “and” are separate entries in the source; they are usually repeats but may differ in a detail not shown here. Equal entries are not always repeated. No end group written: not given here.

We go through six substances from PMC6588697, “Lugdunin amplifies innate immune responses in the skin in synergy with host- and microbiota-derived factors” (Nature Communications, 2019).

As to “IASKFLCTPGCAKTGSFNSYCC (also: bicyclic or more (positions not given here)) [Gallidermin, bacteriocin isolated from Staphylococcus gallinarum]”, the “CXCL8 expression normalized to actin” value with PHKs (setting [1]) is 3.22 and 3.395; in the assay with PHKs (setting [2]), 2.713 and 2.789. The “CXCL8 induction by S. epidermidis CM with added peptide” value (shortened to “CXCL8 induction by S. epidermidis CM”) with PHKs (Fig 4a) is “completely blocked”. The “induction of CXCL8 expression in PHKs” value in the assay on PHKs (S. epidermidis CM, Fig 4a) is recorded as “not able to induce CXCL8 expression”.
As for “ITSISLCTPGCKTGALMGCNMKTATCHCSIHVSK (not fully specified (bridges); also: lanthionine rings, places not given here) [Nisin, bacteriocin of Lactococcus lactis, purchased from Sigma]”, the “CXCL8 expression normalized to actin” value was 3.325 and 3.22 in the assay on PHKs (setting [1]); 88.3403 and 93.3773 in the assay with PHKs (setting [2]). In the assay on PHKs (Fig 4a), the “CXCL8 induction by S. epidermidis CM” value was “non-significant increase”. For the same substance, in the assay on PHKs (S. epidermidis CM, Fig 4a), the “induction of CXCL8 expression in PHKs” value is recorded as “not able to induce CXCL8 expression”.
Regarding “LLGDFFRKSKEKIGKEFKRIVQRIKDFLRNLVPRTES [LL-37, human cathelicidin AMP]”, the “CXCL8 expression normalized to actin” value was 1.54 and 1.645 in the assay with PHKs (setting [1]); 38.5859 and 33.1285 with PHKs (setting [2]). Besides, the “induction of CXCL8 expression in PHKs” value in the assay on PHKs (S. epidermidis CM, Fig 4a) is “not able to induce CXCL8 expression”.
For Lugdunin, the “CXCL8 expression normalized to actin” value in the assay on PHKs (setting [1]) was 43.47 and 44.695; in the assay with PHKs (lugdunin 0.5 µM, medium = 1, technical replicates, Fig 1e), 1.93 and 1.44 and 0.406 and 0.518; in the assay on PHKs (lugdunin 1 µM, technical replicates, Fig 1e), 10.23 and 9.29 and 0.973 and 1.087; in the assay on PHKs (lugdunin 2 µM, technical replicates, Fig 1e), 43.4456 and 47.5424 and 22.549 and 29.548; with PHKs (lugdunin 3 µM, technical replicates, Fig 1e), 64.669 and 66.487; with PHKs (lugdunin 5 µM, technical replicates, Fig 1e), 11.7628 and 11.128. In addition, the “CXCL8 expression normalized to actin” value is 2.0508 and 6.298 with PHKs (lugdunin 10 µM, technical replicates, Fig 1e); 1093.7 and 1265.07 in the assay on PHKs (setting [2]); 44.695 and 43.47 in the assay with PHKs (setting [3]). Moreover, the “CXCL8 induction by S. epidermidis CM” value with PHKs (Fig 4a) is listed as “over 1000 fold”. Further, in the assay with PHKs (higher concentrations did not induce CXCL8 production, text to Fig 1d, e), the “lugdunin concentrations that induced expression and release of CXCL8 in PHKs” value is given as “up to 3 µM”. Moreover, the “induction of CXCL8 expression in PHKs” value with PHKs (S. epidermidis CM, Fig 4a) was “over 40 fold”. The “S. epidermidis CFU normalized to untreated control (1,00)” value with S. epidermidis (single peptide 1 µM) is listed as 1,08; with S. epidermidis (single peptide 2 µM) it was 0,86; in the assay with S. epidermidis (single peptide 3 µM), 1,20. In addition, the “P. aeruginosa CFU normalized to untreated control (1,00)” value in the assay with P. aeruginosa (setting [4]) is reported as 1,34; in the assay with P. aeruginosa (single peptide 2 µM, mean), 1,01; with P. aeruginosa (single peptide 3 µM, mean) it was 1,41. For the same substance, the “P. mirabilis CFU normalized to untreated control (1,00)” value in the assay with P. mirabilis (single peptide 1 µM) is on record as 1,13; in the assay with P. mirabilis (single peptide 2 µM), 0,84; in the assay with P. mirabilis (single peptide 3 µM) it was 0,98. In addition, the “E. coli CFU normalized to untreated control (1,00)” value with E. coli (single peptide 1 µM) was 1,05; with E. coli (single peptide 2 µM), 1,34; in the assay on E. coli (single peptide 3 µM), 1,27. For the same substance, the “E. faecalis CFU normalized to untreated control (1,00)” value is on record as 1,21 in the assay with E. faecalis (single peptide 1 µM), 1,27 in the assay with E. faecalis (single peptide 2 µM) and 0,99 in the assay on E. faecalis (single peptide 3 µM). Besides, the entries for the “B. subtilis CFU normalized to untreated control (1,00)” value in the assay with B. subtilis (single peptide 1 µM), with B. subtilis (single peptide 2 µM) and in the assay with B. subtilis (single peptide 3 µM) were 0,81, 0,60 and 0,44, respectively. For the same substance, the “susceptibility of B. subtilis (in words)” value in the assay with B. subtilis (text to Supp Fig 7) is given as “susceptible”.
On to “MEAVKEKNELFDLDVKVNAKESNDSGAEPRIASKFLCTPGCAKTGSFNSYCC [Pro-Gallidermin, non-bactericidal pro-form of gallidermin]”, for which the “CXCL8 expression normalized to actin” value in the assay on PHKs (setting [1]) was 3.465 and 3.43.
Turning to “SSLLEKGLDGAKKAVGGLGKLGKDAVEDLESVGKGAVHDVKDVLDSV [DCD-1, dermcidin-derived human AMP of eccrine sweat glands]”, the “CXCL8 expression normalized to actin” value in the assay on PHKs (setting [1]) was 13.37 and 13.02; in the assay on PHKs (setting [2]) it was 61.3666 and 64.6468; in the assay with PHKs (setting [3]) it was 13.02 and 13.37. For the same substance, in the assay on PHKs (S. epidermidis CM, Fig 4a), the “induction of CXCL8 expression in PHKs” value is reported as 10 fold. The “S. epidermidis CFU normalized to untreated control (1,00)” value is 1,51 with S. epidermidis (single peptide 1 µM) and 0,94 with S. epidermidis (single peptide 2 µM). The “P. aeruginosa CFU normalized to untreated control (1,00)” value is 0,93 in the assay with P. aeruginosa (setting [4]) and 1,21 in the assay with P. aeruginosa (single peptide 2 µM, mean). Also, the “P. mirabilis CFU normalized to untreated control (1,00)” value in the assay with P. mirabilis (single peptide 1 µM) is reported as 1,05; in the assay with P. mirabilis (single peptide 2 µM) it was 0,98. For the same substance, the results for the “E. coli CFU normalized to untreated control (1,00)” value in the assay with E. coli (single peptide 1 µM) and in the assay on E. coli (single peptide 2 µM) were 1,31 and 1,87, respectively. The figures for the “E. faecalis CFU normalized to untreated control (1,00)” value in the assay on E. faecalis (single peptide 1 µM) and with E. faecalis (single peptide 2 µM) were 1,48 and 1,58, respectively. For the same substance, the “B. subtilis CFU normalized to untreated control (1,00)” value with B. subtilis (single peptide 1 µM) was 1,14; in the assay on B. subtilis (single peptide 2 µM), 1,04.
